In patent US20180282415A1, “Combination of a PD-1 Axis Binding Antagonist and an ALK Inhibitor for Treating ALK-Negative Cancer” (Merck Patent GmbH, priority 2015, published 2018):

Key:
activated T cells = experiment: T cell viability, Cell-Titer Glo Luminescent Cell Viability Assay; assay type: cell-based, human; settings: for Luciferase RLU (T cell viability): log[Agonist]
Experimental: Briefly, human cells were isolated from healthy donors' PBMCs by using EasySep™ Human T Cell Enrichment Kit (Stemcell Technologies) according to manufacturer's instruction. […] Cells were cultured in RPMI 1640 medium supplemented with 10% FCS and 100 I.U./mL penicillin/streptomycin in humidified incubator at 37° C. with 5% CO2. […] Culture supernatants were collected on Day 2 or 3 for cytokine analysis. Plates were then harvested on DNA specific filter papers (Perkin Elmer) using Harvester96 (Tomtec Life Sciences). The radiolabeled filters were covered with beta scintillation liquid (Perkin Elmer) and read in Microbeta® counter plates (Perkin Elmer). ^3H Thymidine was pulsed on Day 2 for T cell proliferation assay. The impact by sunitinib and axitinib on T cell proliferation and viability were repeated as previously published (FIGS. 1A and 1B).
Cell viability was measured by Cell-Titer Glo Luminescent Cell Viability Assay® (Promega, Madison). […] Table 4 below provides the Luciferase RLU values reflecting T cell viability for each of the respective inhibitors.

CT26 colon carcinoma = experiment: In vivo tumor efficacy, CT26 model, PF-06463922 with anti-PD-L1 (Example 2); set-up: species or system Balb/c mice; settings: for Average tumor volume: anti-PD-L1 10 mg/kg i.p. every 3 days x3, PF-06463922 3 mg/kg orally once daily; for Effect on CT26 tumor growth: treatment started in tumors of 100-150 mm^3, compared with isotype
Excerpt: Both CT26 colon carcinoma and B16 melonoma cell lines have published mutanome and transcriptome data, with no known ALK fusion events or oncogenic mutations. Castle et al, BMC Genomics, 15:190 (13 Mar. 2014); Castle et al, CAN 11:3722 (11 Jan. 2012). […] The percentage of TGI was defined as 1-(Tumor volumnTreated/Tumor volumnisotype control)×100.
(§1) The CT26 colon carcinoma cell line was purchased from ATCC® CRL-2638™. B16-F10 (‘B16’) melonoma cell lines were purchased from ATCC® CRL-6475™. Cells were cultured in DMEM medium supplemented with 10% fetal bovine serum, and 100 I.U./mL penicillin/streptomycin at 37° C. in an atmosphere of 5% CO2 in air, and IMPACT-tested for pathogens at Research Animal Diagnostic Laboratory (RADIL) (Columbia, Mo.). Pathogen-free cells growing in an exponential growth phase were harvested and used for tumor inoculation.
(§2) Rat IgG2a isotype control were purchased from BioXcell (clone 2A3)(West Lebanon, N.H.).
(§3) For the second study, C57BL/6 mice were inoculated subcutaneously in the right lower flank with 0.1 ml of 1×10^6 B16 skin melanoma cells. When tumor bearing mice achieved a mean tumor volume of 100 to 150 mm^3, mice were randomly assigned to 1 of 4 treatment groups, n=10.

B16 skin melanoma = experiment: In vivo tumor efficacy, B16 melanoma model, PF-06463922 with anti-PD-L1 (Example 2); set-up: species or system C57BL/6 mice; settings: end of study (day 22 post tumor implant), n=10
Experimental: as §1, §2, §3

[1] = system: CD3/CD28-stimulated effector cells (T cells from healthy donors' PBMCs); experiment: T cell proliferation assay (3H thymidine incorporation), CD3/CD28-stimulated T cells; assay type: cell-based, human; settings: for Thymidine incorporation(CPM): log[Agonist]
Excerpt: Briefly, human cells were isolated from healthy donors' PBMCs by using EasySep™ Human T Cell Enrichment Kit (Stemcell Technologies) according to manufacturer's instruction. […] Culture supernatants were collected on Day 2 or 3 for cytokine analysis. Plates were then harvested on DNA specific filter papers (Perkin Elmer) using Harvester96 (Tomtec Life Sciences). The radiolabeled filters were covered with beta scintillation liquid (Perkin Elmer) and read in Microbeta® counter plates (Perkin Elmer). ^3H Thymidine was pulsed on Day 2 for T cell proliferation assay.

[2] = system: peripheral blood mononuclear cells (PMBCs); settings: published studies (Stehle et al. 2013); cited from earlier work

Row | Structure (SMILES) | Luciferase RLU (T cell viability) (activated T cells; μM: 0) | Luciferase RLU (T cell viability) (activated T cells; μM: 1) | Luciferase RLU (T cell viability) (activated T cells; μM: 2) | Luciferase RLU (T cell viability) (activated T cells; μM: 3) | Luciferase RLU (T cell viability) (activated T cells; μM: −1) | Luciferase RLU (T cell viability) (activated T cells; μM: −2) | Luciferase RLU (T cell viability) (activated T cells; μM: −3) | Thymidine incorporation(CPM) ([1]; μM: 0) | Thymidine incorporation(CPM) ([1]; μM: 1) | Thymidine incorporation(CPM) ([1]; μM: 2) | Thymidine incorporation(CPM) ([1]; μM: 3) | Thymidine incorporation(CPM) ([1]; μM: −1) | Thymidine incorporation(CPM) ([1]; μM: −2) | Thymidine incorporation(CPM) ([1]; μM: −3) | other results
1 | C[C@H]1Oc2cc(cnc2N)-c2c(nn(C)c2C#N)CN(C)C(=O)c2ccc(F)cc21 [PF-06463922, (10R)-7-amino-12-fluoro-2,10,16-trimethyl-15-oxo-10,15,16,17-tetrahydro-2H-8,4-(metheno)pyrazolo[4,3-h][2,5,11]benzoxadiazacyclotetradecine-3-carbonitrile] | 88.53 ± 0.7567 RLU | 89.118 ± 1.283 RLU | 88.6231 ± 1.573 RLU | 40.36 ± 9.736 RLU | 97.8625 ± 2.288 RLU | 95.86 ± 0.6202 RLU | 98.17 ± 0.6606 RLU | 399866.7 ± 10135.82 CPM | 364978.7 ± 37421.4 CPM | 258875.3 ± 25269.1 CPM | 94120.66 ± 2728.719 CPM | 416579.3 ± 23523.21 CPM | 411422.3 ± 13377.95 CPM | 401448.3 ± 37205.07 CPM | Effect on T cell viability (activated T cells; FIG. 1B): did not result in dose-dependent decreases in T cell viability; Average tumor volume (CT26 colon carcinoma; Day 5): 181.85 ± 12.6828 mm^3; Average tumor volume (CT26 colon carcinoma; Day 9): 253.14 ± 34.78 mm^3; Average tumor volume (CT26 colon carcinoma; Day 14): 548.44 ± 96.03 mm^3; Average tumor volume (CT26 colon carcinoma; Day 17): 962.02 ± 180.1961 mm^3; Average tumor volume (CT26 colon carcinoma; Day 21): 1696.96 ± 285.9975 mm^3; tumor growth inhibition (TGI) (CT26 colon carcinoma; day 21 post tumor inoculation, relative to the isotype control): 28.3%; Effect on CT26 tumor growth (CT26 colon carcinoma): partially effective; Effect on CT26 tumor growth (CT26 colon carcinoma; listed as ALK inhibitor): did not consistently inhibit CT26 tumor growth; animals with a complete response (tumor free) (B16 skin melanoma): no animals having a complete response; Effect on T cell proliferation ([1]; activated T cells, FIG. 1A): did not have adverse effects on T cell proliferation
2 | CNC(=O)c1ccccc1Sc1ccc2c(/C=C/c3ccccn3)n[nH]c2c1 [Axitinib, axitinib] | 92.63 ± 0.5221 RLU | 89.79 ± 1.428 RLU | 86.63 ± 0.8779 RLU | 78.81 ± 3.223 RLU | 91.35 ± 1.526 RLU | 95.54 ± 3.15 RLU | 97.36 ± 1.186 RLU | 437978 ± 5214.787 CPM | 385672.3 ± 9004.015^ CPM | 300379.3 ± 25594 CPM | 291128.7 ± 31076.09^ CPM | 407235 ± 52888.48 CPM | 408592.3 ± 11690 CPM | 394950 ± 19054.05 CPM | Toxicity in peripheral blood mononuclear cells [2]: only minor toxicity effects
